Measured values published in US20110053777A1, “Resistance to Acetolactate Synthase-Inhibiting Herbicides” (priority 2006, published 2011).

What was measured:
[1] = test system: C. tinctoria ALS allele with mutations at both Pro197 and Trp574; experiment: Herbicide resistance imparted by the double-mutant ALS allele; set-up: species or system Coreopsis tinctoria; settings: for Pre-emergence and/or post-emergence resistance to herbicide: novel allele with two point mutations; for Resistance of the clone with mutations at both Pro197 and Trp574: resistant clone with both mutations
[2] = biological target: T1, AHAS enzyme from CL161 rice (Oryza sativa subsp. japonica, UniProt Q6K2E8, S627N); experiment: ALS enzyme assay, CL161 rice versus CCDR rice; assay type: biochemical
T1 construct: from tissue; host or cells: leaves of CL161 rice plants; crude ammonium sulfate fraction
Excerpt: (§1) ALS enzyme Assay: An ALS enzyme assay was used to determine if resistance in the mutants was due to the ALS enzyme itself in the mutant plants. A modification was used of the colorimetric method of Singh B. K., Stidham M. A., and Shaner D. L. 1988. Assay of acetohydroxyacid synthase. Analytical Biochemistry 171:173-179. Rice plants were used as controls. Sulfometuron methyl (Oust), chlorsulfuron (Glean), and imazapyr (Arsenal) were used as ALS inhibitors. Briefly, 10 grams of young leaves pooled from either mutant plants or from susceptible plants were ground to a powder in liquid nitrogen, and mixed with 50 ml of extraction buffer containing 100 mM K2HPO4 (pH 7.5), 10 mM sodium pyruvate, 5 mM EDTA, 1 mM valine, 1 mM leucine, 10 mM cysteine, 0.1 mM flavin adenine dinucleotide, 5 mM MgCl2, 10% (v/v) glycerol, and 1% (w/v) polyvinylpyrrolidone. The homogenate was filtered through eight layers of cheesecloth and centrifuged at 25,000 g at 4° C. for 20 min. The supernatant was brought to 50% saturation with (NH4)2SO4 by adding an equal volume of 100% saturated extraction buffer, and was then allowed to stand for 20-30 min on ice. The resulting solution was centrifuged at 25,000 g at 4° C. for another 20 min. The pellet was dissolved in 10 ml resuspension buffer containing 100 mM K2HPO4 (pH7.5), 1 mM EDTA, 100 mM NaCl, and 10% (v/v) glycerol. Bradford Reagent (SIGMA, Saint Louis, Mo., USA) was used to determine the concentration of total protein in solution; and resuspension buffer was used to adjust the concentrations of total protein from wild- and mutant-type of C. tinctoria to the same level.
(§2) ALS activity was measured by mixing 1.5 ml of assay buffer, containing 100 mM K2HPO4 (pH 7.0), 10 mM MgCl2, 100 mM sodium pyruvate, 1 mM thiamine pyrophosphate, 0.1 mM flavin adenine dinucleotide, and 0.5 mL of the ALS extract, with varying amounts of herbicide (0.0.1, 1, 10, 100, 1000 μM). The mixture was then incubated at 37° C. for 1 h. […] The mixtures were then centrifuged at 12,000 g for 10 min, and absorbance was measured at 530 nm with a Spectrophotometer 690.

[3] = test system: susceptible C. tinctoria plants; experiment: Greenhouse herbicide spray test, susceptible plants; assay type: in vivo; settings: SM 8 oz. a.i./A, IM 2 oz. a.i./A
Description: (§3) Response of resistant and susceptible C. tinctoria to imidazolinone and sulfonylurea herbicides treatments: Both wild-type and mutant strains of C. tinctoria were planted in the greenhouse with ˜100 seeds per pot. Individual plants were transplanted to separate pots after seven weeks. The greenhouse regime comprised natural light with temperatures of 25 to 30° C. during the day and 15 to 20° C. at night. The experimental setup was a completely randomized design with five treatments and six plants (replications) per treatment for both wild-type and mutant strains. The five treatments were Arsenal (imazapyr), Oust (sulfometuron methyl), Arsenal+Oust sequential, Oust+Arsenal sequential, and control (no herbicide). […] to individual mutant or susceptible, […], with 12 plants per each herbicide treatment for both wild-type and mutants. Ten days later, the same rate of Oust was sprayed on six plants that had previously been treated with Arsenal, and the same rate of Arsenal was sprayed on six plants that had previously been treated with Oust, for both wild-type and mutants. […]
The range of herbicide injury ratings for the sprayed susceptible plants was 3.3 to 4.8, with essentially no injury for the unsprayed controls.

[4] = test system: ALS enzyme from the resistant C. tinctoria mutants; experiment: ALS enzyme assay, C. tinctoria mutant versus susceptible; assay type: biochemical
Excerpt: as §1, §2

[5] = test system: resistant C. tinctoria plants; experiment: Greenhouse herbicide spray test, resistant plants; assay type: in vivo
Description: as §3
Plant height in resistant plants was not affected when sprayed with […] or imazapyr, as compared to the unsprayed resistant controls. […] It appeared that the imazapyr+sulfosulfuron methyl treatment stimulated growth in the resistant plants, an observation that will be confirmed in follow-up experiments. Various strains or genotypes of C. tinctoria were used in this study, so a direct evaluation of herbicide on plant height should be viewed with caution. […] Herbicide injury ratings for the resistant plants ranged from 0.5 to 1.2 (Table 2).

susceptible Coreopsis = experiment: Field trial of ALS-inhibiting herbicides on F1 plants, commercial control seed; assay type: in vivo, Coreopsis tinctoria; settings: Oust applied at 0.07 pounds ai/A, ratings taken at 23 and 49 days after application
Description: To confirm herbicide resistance, and to characterize herbicide resistance profiles, seeds from the roadside-harvested, putatively-resistant Coreopsis were harvested (F0) and planted in a field in a separate location from the original roadside stand. The resulting F0 plants were not subjected to herbicide treatment. F1 seeds were harvested from the F0 plants, and the F1 seeds were planted in a field in several blocks and replicates. The resulting F1 plants were treated with various AHAS-inhibiting herbicides.
Commercial Coreopsis tinctoria seed were obtained as controls from two commercial nurseries. The commercially-obtained seed and the experimental seed were planted with a small grain drill at a seeding rate of 2 pounds per acre. Three months later, herbicides were applied to the F1 plants at different rates in a randomized complete block design with three replications. The ALS-inhibiting herbicides used in this trial were sulfometuron methyl (trade name Oust™); imazapic (trade name Plateau™); sulfosulfuron, 1-(2-ethylsulfonylimidazo[1,2a]pyridin-3-ylsulfonyl)-3-(4,6-dimethoxypyrimidin-2-yl) urea (trade name Outrider™); and DPX 6447.
Percent injury ratings were taken at 23 and 49 days after herbicide application. All herbicide treatments injured the susceptible Coreopsis. […]

[6] = test system: seed from Chase (herbicide-resistant Coreopsis); experiment: Field planting sprayed with Oust, seed from Chase; assay type: in vivo, Coreopsis tinctoria
Excerpt: (§4) Seed were harvested from mature Coreopsis with a combine from plantings both inside and outside the herbicide treated areas at the Idlewild Research Station in Clinton, La. Seed were also harvested with a combine from the roadside area near Chase, La. Putative herbicide-resistant seed from the Chase location, and putative herbicide-sensitive seed from the Idlewild Research Station were separately cleaned and stored in a climate-controlled seed storage facility.
(§5) Seed samples from both seed sources were planted in March at the Idlewild Research Station using a small grain drill, at a 2 pound per acre seeding rate. Area one contained both control seed grown the previous season at the Idlewild Research Station, and seed obtained from the Chase, La. site. A second area was planted in March exclusively with seed from Chase, La. A third area was planted in April with seed from Chase, La.
(§6) A single application of Oust at 0.07 pounds ai/A was applied in mid-May to half of the first and third plantings and to all of the second planting.

[7] = test system: Idlewild-grown control seed (herbicide-sensitive Coreopsis); experiment: Field planting sprayed with Oust, Idlewild-grown control seed; assay type: in vivo, Coreopsis tinctoria; settings: single application of Oust at 0.07 pounds ai/A
Excerpt: as §4, §5, §6

[8] = test system: susceptible transplants from Idlewild; experiment: Transplanting trial, susceptible transplants; assay type: in vivo, Coreopsis tinctoria; settings: applied 2 weeks after transplant, ratings 2 and 4 weeks after application
Description: A transplanting trial was also conducted in May at the Idlewild Research Station. Five-inch diameter divots of plants were collected at both the Chase and Idlewild sites. Divots were transplanted to a location at Idlewild which had had no previous Coreopsis crop. Divots were transplanted in a paired arrangement on 36 inch centers. Oust, Plateau and Outrider were applied at various rates 2 weeks after transplant. The trial used a randomized complete block design with 3 replications. Visual injury and height ratings were taken 2 and 4 weeks after application. Injury to the susceptible transplants from Idlewild ranged from a high of 100% at all rates of Oust to a low of 60% with the 0.06 pound ai/A rate of Outrider. No injury was observed, nor any height differences noted in any application made to the resistant transplants from the Chase site.

[9] = sequential sprays March 3 and March 13, 25 days after treatment
[10] = SM 8 oz. a.i./A, IM 2 oz. a.i./A, sequential sprays March 3 and March 13

T1 sequence (Q6K2E8 44-644 S627N): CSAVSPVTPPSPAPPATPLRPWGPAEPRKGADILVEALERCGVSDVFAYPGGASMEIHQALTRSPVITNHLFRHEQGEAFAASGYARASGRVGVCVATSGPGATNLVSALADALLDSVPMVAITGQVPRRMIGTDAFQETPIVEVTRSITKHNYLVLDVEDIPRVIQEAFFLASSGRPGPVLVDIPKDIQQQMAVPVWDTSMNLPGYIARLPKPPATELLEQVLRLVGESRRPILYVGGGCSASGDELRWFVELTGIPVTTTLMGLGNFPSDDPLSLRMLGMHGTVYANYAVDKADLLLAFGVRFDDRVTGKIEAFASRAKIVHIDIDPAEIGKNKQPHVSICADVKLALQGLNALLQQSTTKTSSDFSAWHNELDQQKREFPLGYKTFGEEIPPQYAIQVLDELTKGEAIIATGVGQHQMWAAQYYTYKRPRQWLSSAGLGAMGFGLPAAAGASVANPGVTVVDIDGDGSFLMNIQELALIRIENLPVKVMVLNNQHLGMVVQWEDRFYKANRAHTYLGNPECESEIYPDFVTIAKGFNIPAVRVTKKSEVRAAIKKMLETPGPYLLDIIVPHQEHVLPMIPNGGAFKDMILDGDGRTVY

## Cc1cnc(C2=NC(C)(C(C)C)C(=O)N2)c(C(=O)O)c1 (racemic) [imazapic, (±)-2-[4,5-dihydro-4-methyl-4-(1-methyl-ethyl)-5-oxo-1H-imidazol-2-yl]-5-methyl-3-pyridinecarboxylic acid]
[1]
  Pre-emergence and/or post-emergence resistance to herbicide: Resistance has been demonstrated

## CC(C)C1(C)N=C(c2ncccc2C(=O)O)NC1=O (centres unmarked) [Arsenal, 2-[4,5-dihydro-4-methyl-4-(1-methylethyl)-5-oxo-1H-imidazol-2-yl]-3-pyridinecarboxylic acid]
[2]; Arsenal at 10 μM, FIG. 1b
  Tolerance of CL161 rice enzyme compared to control: < 2 fold
[3]; [9]
  % height reduction compared to no spray control: 80%
  Plant height (cm): 11.0 cm
[3]; scale 0 = no injury, 10 = dead plant
  Injury rating: 3.5
[1]
  Pre-emergence and/or post-emergence resistance to herbicide: Resistance has been demonstrated
  Resistance of the clone with mutations at both Pro197 and Trp574: strong resistance
[4]; Arsenal at 10 to 100 μM, FIG. 1a
  Tolerance of mutant ALS enzyme compared to susceptible variety: ~2.5 fold
[5]
  Plant height compared to the unsprayed resistant controls (in words): not affected
[5]; [10]
  % height reduction compared to no spray control: 0%
  Plant height (cm): 9.2 cm
[5]; scale 0 = no injury, 10 = dead plant, SM 8 oz. a.i./A, IM 2 oz. a.i./A
  Injury rating: 0.7

## COc1nc(C)nc(NC(=O)NS(=O)(=O)c2ccccc2Cl)n1 [Glean, 2-chloro-N-[(4-methoxy-6-methyl-1,3,5-triazin-2-yl)aminocarbonyl]benzenesulfonamide]
[2]; Glean at 1 μM, FIG. 1d
  Tolerance of CL161 rice AHAS compared to control: < 1 fold
[1]
  Resistance of the clone with mutations at both Pro197 and Trp574: strong resistance
[4]; Glean at 1 to 10 μM, FIG. 1c
  Tolerance of mutant AHAS compared to susceptible control: ~4.5 fold

## COC(=O)c1ccccc1S(=O)(=O)NC(=O)Nc1nc(C)cc(C)n1 [Oust, 2-[[[[(4,6-dimethyl-2-pyrimidinyl)amino]carbonyl]amino]sulfonyl]benzoic acid methyl ester]
[2]; 100 μM of Oust, FIG. 1f
  Tolerance of CL161 rice compared to susceptible variety CCDR (in words): significantly greater tolerance
Susceptible Coreopsis
  Percent injury rating: 98%
[6]; second application of Oust at 0.14 pounds ai/A
  effect of second application: no noticeable effect
[6]; single application of Oust at 0.07 pounds ai/A
  injury rate: less than 1%
[7]
  injury rate: 98%
[1]
  Pre-emergence and/or post-emergence resistance to herbicide: Resistance has been demonstrated
  Resistance of the clone with mutations at both Pro197 and Trp574: strong resistance
[8]; all rates of Oust
  Visual injury: 100%
[4]; Oust, FIG. 1e
  Tolerance of mutant ALS compared to susceptible control (in words): more tolerant than the susceptible control for Oust herbicide (sulfometuron methyl) (FIG. 1e), although the difference was not significant

## CCS(=O)(=O)c1nc2ccccn2c1S(=O)(=O)NC(=O)Nc1nc(OC)cc(OC)n1 [Outrider, 1-(2-ethylsulfonylimidazo[1,2a]pyridin-3-ylsulfonyl)-3-(4,6-dimethoxypyrimidin-2-yl) urea]
[1]
  Pre-emergence and/or post-emergence resistance to herbicide: Resistance has been demonstrated
[8]; 0.06 pound ai/A rate of Outrider
  Visual injury: 60%

## COc1cc(OC)nc(NC(=O)NS(=O)(=O)c2ncccc2C(F)(F)F)n1 [flazasulfuron]
[1]
  Pre-emergence and/or post-emergence resistance to herbicide: Resistance has been demonstrated

## COC(=O)c1ccccc1S(=O)(=O)NC(=O)Nc1nc(C)nc(OC)n1 [metsulfuron methyl, methyl 2-[[[[(4-methoxy-6-methyl-1,3,5-triazin-2-yl)amino]carbonyl]amino]sulfonyl]benzoate]
[1]
  Pre-emergence and/or post-emergence resistance to herbicide: Resistance has been demonstrated

## COc1nc(C)nc(NC(=O)NS(=O)(=O)c2ccccc2OCCCl)n1 [triasulfuron, 3-(6-methoxy-4-methyl-1,3,5-triazin-2-yl)-1-[2-(2-chloroethoxy)-phenylsulfonyl]-urea]
[1]
  Pre-emergence and/or post-emergence resistance to herbicide: Resistance has been demonstrated
